Laboratory results as given in patent US6653529B2, “Use of the maize X112 mutant ahas 2 gene and imidazolinone herbicides for selection of transgenic monocots, maize, rice and wheat plants resistant to the imidazolinone herbicides” (BASF Aktiengesellschaft, priority 2000, dated 2003).

How the values were obtained:
transgenic rice Line 26 = assay: Response of rice plants to various herbicides, seed set in greenhouse; type: in vivo; settings: post-emergence, 1× g ai/ha: PURSUIT 62.5, CADRE 32, ARSENAL 24, RAPTOR 32, SCEPTER 125, ACCENT 35, CLASSIC 5, AC322,140 20, LONDAX 68
Source text: (§1) A total of 9 herbicides, 5 imidazolinones, two rice herbicides and ACCENT® (nicosulfuron) and CLASSIC® (clorimuron-ethyl) were applied in this study. Materials and methods were basically the same as described above, except that instead of 6″ pots, flats with 18 (3″×3″ per cell) cells were used, and 10-12 seeds were planted to one 3″×3″ cell. Ten plants were maintained in one cell in the post-emergence application. Each herbicide was sprayed at 4 different rates, 1, 2, 4, and 6×, as either pre or post-emergence applications with three replications per treatment. The name and amount of herbicide applied in this experiment and information relevant to their commercial applications are listed in Table 3. For simplicity and convenience, the lowest concentration used is referred as 1× rate, 2, 4 and 6× rates can be calculated as multiples of 1×.
(§2) To monitor plant response to various herbicides, data on fresh weight was collected. For pre-emergence applications, all plants from one cell were harvested 32 days after spraying (36-day old plants) and weighed. Twenty-nine days after herbicide application, 5 plants (44-day old plants) from each cell in the post-emergence application, were cut and weighed individually. Mean fresh weight for each treatment was calculated over three replications. The remaining 5 plants were grown in the greenhouse to maturity at which time, panicles of 3 plants were collected, and number of filled seeds and number of total kernels were counted to determine percentage of seed set.

transgenic rice Line 29 = assay: as above; type: in vivo; settings: post-emergence, 1× g ai/ha: PURSUIT 62.5, CADRE 32, ARSENAL 24, RAPTOR 32, SCEPTER 125, ACCENT 35, CLASSIC 5, AC322,140 20, LONDAX 68
Source text: as §1, §2

[1] = system: untransformed Nt rice plants; assay: as above; type: in vivo; settings: post-emergence, 1× g ai/ha: PURSUIT 62.5, CADRE 32, ARSENAL 24, RAPTOR 32, SCEPTER 125, ACCENT 35, CLASSIC 5, AC322,140 20, LONDAX 68
Source text: as §1, §2

[2] = system: AHAS (acetohydroxyacid synthase) in extracts of Nortai, Line 26 and Line 29; assay: In vitro AHAS activity assay; type: biochemical, rice; settings: a significant portion of the enzyme activity; compared with normal enzyme from Nortai; FIG. 2
Procedure: Previously published procedures were used for the extraction and in vitro assay for AHAS activity (Singh et al. 1988). Lower portions of the shoots were used as the source of plant tissue for the assay. The desalted crude extracts were used for the in vitro enzyme assays. Acetolactate produced by the enzyme was converted to acetoin, which was measured by the Westerfield assay system.
In vitro AHAS assays were performed to understand the basis of herbicide tolerance in the transgenic plants. Previously published procedure was used for the extraction and in vitro assay for AHAS activity (Singh et al. 1988). The lower portions of the shoots were used as the source of plant tissue for the assay. The desalted crude extracts were used for the in vitro enzyme assays. Acetolactate produced by the enzyme was converted to acetoin, which was measured by the Westerfield assay system (Westerfield 1945). The specific activity of AHAS was about 30% higher in Line 26 (67 nmoles/mg protein/h) and Line 29 (64 nmoles/mg protein/h) compared to the activity in Nortai (Nt) (50 nmoles/mg protein/h).

[3] = system: transgenic rice Line 26 (maize XI12 ahas2 gene); assay: Greenhouse spray test of rice with PURSUIT imazethapyr (pre- and post-emergence); type: in vivo
[4] = system: non-transformed Ciccio and Colosseo wheat plants; assay: Greenhouse spray test of wheat with RAPTOR imazamox; type: in vivo
Source text: Sow seed to 3×5-cell flats at about 10 seed per cell. Grow the plants for about two weeks. On the day of spraying, water plants well and let excess water drip out. Spray plants on a belt-sprayer with the imidazolinone herbicides at desired rates. […] Resume regular water schedule three days after spraying. Closely observe the plants for the next two to four weeks. Symptoms of herbicide injury will be visible two weeks after spraying and susceptible plants will die four to six weeks later. We usually measure plant height and score the plant morphology with a 0 to 10 rating with 0 for dead plants and 10 for healthy plants with no or minimum injury.
We also analyzed T2 progeny plants from one of the best lines of 0407-1-10. T2 seeds were planted at 10 seeds per pot and two pots per line were sprayed at 0, 10, 20, 30, 40 and 50 g/ha RAPTOR® imazamox. Most plants did show an increase in resistance over non-transformed control (FIG. 6B).

[5] = post-emergence, Rate 63 (g ai/ha)
[6] = post-emergence, Rate 125 (g ai/ha)
[7] = post-emergence, Rate 250 (g ai/ha)

## CC(C)C1(C)N=C(c2ncccc2C(=O)O)NC1=O (stereo not shown) [ARSENAL ®, imazapyr]
Transgenic rice Line 26; 1× rate
  % seed-set: 85%
  No. filled seeds/3 panicles: 156
  Total No. of kernels/3 panicles: 183
Transgenic rice Line 26; 2× rate
  % seed-set: 77%
  No. filled seeds/3 panicles: 132
  Total No. of kernels/3 panicles: 170
Transgenic rice Line 26; 4× rate
  % seed-set: 6%
  No. filled seeds/3 panicles: 10
  Total No. of kernels/3 panicles: 170
Transgenic rice Line 26; 6× rate
  % seed-set: 1%
  No. filled seeds/3 panicles: 2
  Total No. of kernels/3 panicles: 178
Transgenic rice Line 29; 1× rate
  % seed-set: 90%
  No. filled seeds/3 panicles: 122
  Total No. of kernels/3 panicles: 137
Transgenic rice Line 29; 2× rate
  % seed-set: 81%
  No. filled seeds/3 panicles: 116
  Total No. of kernels/3 panicles: 144
Transgenic rice Line 29; 4× rate
  % seed-set: 26%
  No. filled seeds/3 panicles: 41
  Total No. of kernels/3 panicles: 179
Transgenic rice Line 29; 6× rate
  % seed-set: 19%
  No. filled seeds/3 panicles: 27
  Total No. of kernels/3 panicles: 140
[1]; 1× rate
  % seed-set: 0%
  No. filled seeds/3 panicles: 0
  Total No. of kernels/3 panicles: 0
[1]; 2× rate
  % seed-set: 0%
  No. filled seeds/3 panicles: 0
  Total No. of kernels/3 panicles: 0
[1]; 4× rate
  % seed-set: 0%
  No. filled seeds/3 panicles: 0
  Total No. of kernels/3 panicles: 0
[1]; 6× rate
  % seed-set: 0%
  No. filled seeds/3 panicles: 0
  Total No. of kernels/3 panicles: 0
[2]
  inhibition of AHAS activity from tolerant Line 26 and Line 29: insensitive to inhibition

## Cc1cnc(C2=NC(=O)C(C)(C(C)C)N2)c(C(=O)O)c1 (stereo not shown) [CADRE ®, imazameth]
Transgenic rice Line 26; 1× rate
  % seed-set: 84%
  No. filled seeds/3 panicles: 133
  Total No. of kernels/3 panicles: 159
Transgenic rice Line 26; 2× rate
  % seed-set: 95%
  No. filled seeds/3 panicles: 153
  Total No. of kernels/3 panicles: 161
Transgenic rice Line 26; 4× rate
  % seed-set: 87%
  No. filled seeds/3 panicles: 124
  Total No. of kernels/3 panicles: 143
Transgenic rice Line 26; 6× rate
  % seed-set: 77%
  No. filled seeds/3 panicles: 131
  Total No. of kernels/3 panicles: 169
Transgenic rice Line 29; 1× rate
  % seed-set: 88%
  No. filled seeds/3 panicles: 154
  Total No. of kernels/3 panicles: 175
Transgenic rice Line 29; 2× rate
  % seed-set: 86%
  No. filled seeds/3 panicles: 143
  Total No. of kernels/3 panicles: 166
Transgenic rice Line 29; 4× rate
  % seed-set: 82%
  No. filled seeds/3 panicles: 126
  Total No. of kernels/3 panicles: 154
Transgenic rice Line 29; 6× rate
  % seed-set: 80%
  No. filled seeds/3 panicles: 127
  Total No. of kernels/3 panicles: 159
[1]; 1× rate
  % seed-set: 98%
  No. filled seeds/3 panicles: 92
  Total No. of kernels/3 panicles: 94
[1]; 2× rate
  % seed-set: 83%
  No. filled seeds/3 panicles: 76
  Total No. of kernels/3 panicles: 82
[1]; 4× rate
  % seed-set: 0%
  No. filled seeds/3 panicles: 0
  Total No. of kernels/3 panicles: 0
[1]; 6× rate
  % seed-set: 0%
  No. filled seeds/3 panicles: 0
  Total No. of kernels/3 panicles: 0

## CCc1cnc(C2=NC(C)(C(C)C)C(=O)N2)c(C(=O)O)c1 (stereo not shown) [PURSUIT ®, imazethapyr]
[3]; [5]
  No. panicles/plant Mean: 25.3
  No. tillers/plant Mean: 27.1
  Plant height Mean: 110.1 cm
  Yield % 0×: 98 % 0×
  Yield Mean: 206.7 g/5 plants
[3]; [6]
  No. panicles/plant Mean: 22.8
  No. tillers/plant Mean: 25.6
  Plant height Mean: 108.1 cm
  Yield % 0×: 98 % 0×
  Yield Mean: 206.0 g/5 plants
[3]; [7]
  No. panicles/plant Mean: 21.7
  No. tillers/plant Mean: 25.4
  Plant height Mean: 110.3 cm
  Yield % 0×: 96 % 0×
  Yield Mean: 202.7 g/5 plants
[3]; pre-emergence, 63 g/ha
  No. panicles/plant Mean: 13.2
  No. tillers/plant Mean: 14.3
  Plant height Mean: 92.2 cm
  Yield % 0×: 101 % 0×
  Yield Mean: 155.3 g/5 plants
[3]; pre-emergence, 125 g/ha
  No. panicles/plant Mean: 14.4
  No. tillers/plant Mean: 15.3
  Plant height Mean: 89.7 cm
  Yield % 0×: 111 % 0×
  Yield Mean: 170.0 g/5 plants
[3]; pre-emergence, 250 g/ha
  No. panicles/plant Mean: 15.7
  No. tillers/plant Mean: 13.3
  Plant height Mean: 88.5 cm
  Yield % 0×: 109 % 0×
  Yield Mean: 167.0 g/5 plants
Transgenic rice Line 26; 1× rate
  % seed-set: 91%
  No. filled seeds/3 panicles: 143
  Total No. of kernels/3 panicles: 157
Transgenic rice Line 26; 2× rate
  % seed-set: 86%
  No. filled seeds/3 panicles: 133
  Total No. of kernels/3 panicles: 155
Transgenic rice Line 26; 4× rate
  % seed-set: 89%
  No. filled seeds/3 panicles: 152
  Total No. of kernels/3 panicles: 172
Transgenic rice Line 26; 6× rate
  % seed-set: 77%
  No. filled seeds/3 panicles: 107
  Total No. of kernels/3 panicles: 138
Transgenic rice Line 29; 1× rate
  % seed-set: 85%
  No. filled seeds/3 panicles: 125
  Total No. of kernels/3 panicles: 146
Transgenic rice Line 29; 2× rate
  % seed-set: 88%
  No. filled seeds/3 panicles: 136
  Total No. of kernels/3 panicles: 155
Transgenic rice Line 29; 4× rate
  % seed-set: 88%
  No. filled seeds/3 panicles: 138
  Total No. of kernels/3 panicles: 156
Transgenic rice Line 29; 6× rate
  % seed-set: 87%
  No. filled seeds/3 panicles: 141
  Total No. of kernels/3 panicles: 160
[1]; 1× rate
  % seed-set: 35%
  No. filled seeds/3 panicles: 38
  Total No. of kernels/3 panicles: 47
[1]; 2× rate
  % seed-set: 0%
  No. filled seeds/3 panicles: 0
  Total No. of kernels/3 panicles: 0
[1]; 4× rate
  % seed-set: 10%
  No. filled seeds/3 panicles: 19
  Total No. of kernels/3 panicles: 21
[1]; 6× rate
  % seed-set: 0%
  No. filled seeds/3 panicles: 0
  Total No. of kernels/3 panicles: 0
[2]
  inhibition of AHAS activity from tolerant Line 26 and Line 29: insensitive to inhibition

## COCc1cnc(C2=NC(C)(C(C)C)C(=O)N2)c(C(=O)O)c1 (stereo not shown) [RAPTOR ®, imazamox]
Transgenic rice Line 26; 1× rate
  % seed-set: 87%
  No. filled seeds/3 panicles: 156
  Total No. of kernels/3 panicles: 180
Transgenic rice Line 26; 2× rate
  % seed-set: 89%
  No. filled seeds/3 panicles: 172
  Total No. of kernels/3 panicles: 193
Transgenic rice Line 26; 4× rate
  % seed-set: 91%
  No. filled seeds/3 panicles: 166
  Total No. of kernels/3 panicles: 183
Transgenic rice Line 26; 6× rate
  % seed-set: 77%
  No. filled seeds/3 panicles: 136
  Total No. of kernels/3 panicles: 167
Transgenic rice Line 29; 1× rate
  % seed-set: 89%
  No. filled seeds/3 panicles: 161
  Total No. of kernels/3 panicles: 180
Transgenic rice Line 29; 2× rate
  % seed-set: 80%
  No. filled seeds/3 panicles: 137
  Total No. of kernels/3 panicles: 171
Transgenic rice Line 29; 4× rate
  % seed-set: 91%
  No. filled seeds/3 panicles: 152
  Total No. of kernels/3 panicles: 167
Transgenic rice Line 29; 6× rate
  % seed-set: 80%
  No. filled seeds/3 panicles: 125
  Total No. of kernels/3 panicles: 149
[1]; 1× rate
  % seed-set: 0%
  No. filled seeds/3 panicles: 0
  Total No. of kernels/3 panicles: 0
[1]; 2× rate
  % seed-set: 0%
  No. filled seeds/3 panicles: 0
  Total No. of kernels/3 panicles: 0
[1]; 4× rate
  % seed-set: 0%
  No. filled seeds/3 panicles: 0
  Total No. of kernels/3 panicles: 0
[1]; 6× rate
  % seed-set: 0%
  No. filled seeds/3 panicles: 0
  Total No. of kernels/3 panicles: 0
[4]; 10 g/ha
  plant heights of Ciccio and Colosseo reduced, less than those of transformed plants: 50%
[4]; 50 g/ha
  fate of non-transformed Ciccio: caused death
